Experimental data as given in patent US20060069132A1, “Azolecarboxamide herbicides” (priority 2004, published 2006).

How the values were obtained:
rice [1] = assay: Test B pre-/postemergence herbicide test; assay type: in vivo, Oryza sativa; conditions: Oryza sativa, pre-emergence, 336 h
Summary of the method: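 Response was scored visually 13 to 15 days after treatment against untreated greenhouse controls, 0 meaning no effect and 100 complete control. Formulations (solvent mixture plus surfactant) went onto soil after planting, onto foliage of 1- to 4-leaf plants, and onto 2-leaf plants in a flooded paddy set including rice and barnyardgrass.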

cocklebur = assay: Test C pre-/postemergence herbicide test; assay type: in vivo, Xanthium strumarium
Summary of the method: (§1)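 Emerged plants at the 1- to 4-leaf stage (2–18 cm), or freshly planted seeds, received test chemicals in a non-phytotoxic solvent mixture with surfactant. Response was visually scored against controls after 12 to 14 days in the greenhouse, on a 0 (no effect) to 100 (complete control) scale.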

lambsquarters = assay: Test C pre-/postemergence herbicide test; assay type: in vivo, Chenopodium album; conditions: for Lambsquarters plant response rating: 500 g ai/ha
Summary of the method: as §1

yellow nutsedge = assay: Test C pre-/postemergence herbicide test; assay type: in vivo, Cyperus esculentus; conditions: for Nutsedge, Yellow plant response rating: 500 g ai/ha
Summary of the method: as §1

common ragweed = assay: Test C pre-/postemergence herbicide test; assay type: in vivo, Ambrosia elatior; design: key to Plant response rating, Ragweed: 0 = no effect, 100 = complete control; conditions: for Ragweed plant response rating: 500 g ai/ha
Summary of the method: as §1

soybean = assay: Test C pre-/postemergence herbicide test; assay type: in vivo, Glycine max; conditions: for Soybean plant response rating: 500 g ai/ha
Summary of the method: as §1

[2] = test system: common (oilseed) sunflower; assay: Test C pre-/postemergence herbicide test; assay type: in vivo, Helianthus annuus; conditions: for Sunflower plant response rating: Preemergence, 500 g ai/ha, scale 0 to 100, 0 no effect, 100 complete control
Summary of the method: as §1

morningglory = assay: Test A pre-/postemergence herbicide test; assay type: in vivo, Ipomoea spp.; conditions: for Plant response rating, Morningglory: Postemergence; for Morningglory plant response rating: Preemergence
Summary of the method: (§2)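 Both application timings were run together: directed soil spray over freshly planted seeds in sandy loam, and runoff spray onto 2–10 cm seedlings. Evaluation after ~10 days in greenhouse used a 0–100 visual scale versus untreated controls.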

velvetleaf = assay: Test A pre-/postemergence herbicide test; assay type: in vivo, Abutilon theophrasti; conditions: for Velvetleaf plant response rating: Preemergence
Summary of the method: as §2

rice [3] = assay: Test C flooded paddy test; assay type: in vivo, Oryza sativa; conditions: for Plant response rating, Rice: visual rating after 12 to 14 days
Summary of the method: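 Injury scored visually against controls on a 0 (no effect) to 100 (complete control) scale, 12 to 14 days after treatment in greenhouse. Flooded paddy plants treated at 2-leaf stage; postemergence plants at 1- to 4-leaf stage, 2 to 18 cm tall.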

[4] = Preemergence, scale 0 to 100, 0 no effect, 100 complete control
[5] = 2000 g ai/ha, 0 to 100 scale, 0 no effect, 100 complete control
[6] = 500 g ai/ha, visual rating, 0 to 100 scale (0 no effect, 100 complete control)
[7] = 125 g ai/ha, scale 0 (no effect) to 100 (complete control), visual, 12 to 14 days, preemergence
[8] = 250 g ai/ha, scale 0 to 100 (0 no effect, 100 complete control), visual, 12 to 14 days, preemergence
[9] = Postemergence, 250 g ai/ha, scale 0 to 100, 0 no effect, 100 complete control
[10] = postemergence, 62 g ai/ha, scale 0 to 100

## CCc1nn(C(C)(C)C)cc1C(=O)Nc1cccc(C(=O)N(CC)CC)c1 [Compound 182, N-[3-[(diethylamino)carbonyl]phenyl]-1-(1,1-dimethylethyl)-3-ethyl-1H-pyrazole-4-carboxamide]
Rice [1]; 125 g ai/ha, 0 = no effect, 100 = complete control, read-out: Rice plant response rating (0 to 100 scale)
  plant injury at 125 g/ha: 0%
Rice [1]; 500 g ai/ha, visual rating 0-100, 0 no effect, 100 complete control, read-out: Plant response rating, Rice
  plant injury at 500 g/ha: 50%
cocklebur; Xanthium strumarium, pre-emergence, 312 h, 62 g ai/ha, preemergence, scale 0 to 100, read-out: Plant response rating, Cocklebur
  pest or weed control at 62 g/ha: 0%
cocklebur; Xanthium strumarium, pre-emergence, 312 h, 125 g ai/ha, scale 0 (no effect) to 100 (complete control), visual, 12 to 14 days, read-out: Plant response rating, Cocklebur
  pest or weed control at 125 g/ha: 0%
cocklebur; Xanthium strumarium, pre-emergence, 312 h, 250 g ai/ha, scale 0 to 100 (0 no effect, 100 complete control), visual, 12 to 14 days, read-out: Plant response rating, Cocklebur
  pest or weed control at 250 g/ha: 0%
cocklebur; Xanthium strumarium, pre-emergence, 312 h, Preemergence, 500 g ai/ha, scale 0 to 100, 0 no effect, 100 complete control, read-out: Cocklebur plant response rating
  pest or weed control at 500 g/ha: 0%
lambsquarters; Chenopodium album, pre-emergence, 62 g ai/ha, preemergence, scale 0 to 100, read-out: Plant response rating, Lambsquarters
  pest or weed control at 62 g/ha: 25%
lambsquarters; Chenopodium album, pre-emergence, 125 g ai/ha, scale 0 (no effect) to 100 (complete control), visual, 12 to 14 days, read-out: Plant response rating, Lambsquarters
  pest or weed control at 125 g/ha: 95%
lambsquarters; [4]
  Lambsquarters plant response rating: 95
Yellow nutsedge; Cyperus, pre-emergence, 62 g ai/ha, preemergence, scale 0 to 100, read-out: Plant response rating, Nutsedge, Yellow
  pest or weed control at 62 g/ha: 0%
Yellow nutsedge; Cyperus, pre-emergence, 125 g ai/ha, scale 0 (no effect) to 100 (complete control), visual, 12 to 14 days, read-out: Plant response rating, Nutsedge, Yellow
  pest or weed control at 125 g/ha: 0%
Yellow nutsedge; [4]
  Nutsedge, Yellow plant response rating: 0
Common ragweed; Ambrosia artemisiifolia, pre-emergence, 62 g ai/ha, preemergence, scale 0 to 100, read-out: Plant response rating, Ragweed
  pest or weed control at 62 g/ha: 20%
Common ragweed; Ambrosia artemisiifolia, pre-emergence, 125 g ai/ha, scale 0 (no effect) to 100 (complete control), visual, 12 to 14 days, read-out: Plant response rating, Ragweed
  pest or weed control at 125 g/ha: 20%
Common ragweed; [4]
  Ragweed plant response rating: 65
soybean; Glycine max, pre-emergence, 62 g ai/ha, preemergence, scale 0 to 100, read-out: Plant response rating, Soybean
  plant injury at 62 g/ha: 0%
soybean; Glycine max, pre-emergence, 125 g ai/ha, scale 0 (no effect) to 100 (complete control), visual, 12 to 14 days, read-out: Plant response rating, Soybean
  plant injury at 125 g/ha: 0%
soybean; [4]
  Soybean plant response rating: 15
[2]; Helianthus annuus, pre-emergence, 62 g ai/ha, preemergence, scale 0 to 100, read-out: Plant response rating, Sunflower
  pest or weed control at 62 g/ha: 0%
[2]; Helianthus annuus, pre-emergence, 125 g ai/ha, scale 0 (no effect) to 100 (complete control), visual, 12 to 14 days, read-out: Plant response rating, Sunflower
  pest or weed control at 125 g/ha: 0%
[2]
  Sunflower plant response rating: 0

## C#CCNC(=O)c1cccc(NC(=O)c2cc(C(C)(C)C)nn2CC)c1 [Compound 47]
morningglory; 500 g ai/ha, 0 to 100 scale, 0 no effect, 100 complete control
  Plant response rating, Morningglory: 20
morningglory; [5]
  Plant response rating, Morningglory: 25
  Morningglory plant response rating: 30
morningglory; [6]
  Morningglory plant response rating: 20
velvetleaf; Postemergence, 2000 g ai/ha, 0 to 100 scale, 0 no effect, 100 complete control
  Plant response rating, Velvetleaf: 40
velvetleaf; [6]
  Velvetleaf plant response rating: 20
velvetleaf; [5]
  Velvetleaf plant response rating: 95
cocklebur; 62 g ai/ha, preemergence
  Plant response rating (0 = no effect, 100 = complete control), Cocklebur: 0
cocklebur; [7]
  Plant response rating, Cocklebur: 0
cocklebur; [8]
  Plant response rating, Cocklebur: 0
cocklebur; Postemergence, 500 g ai/ha, scale 0 to 100
  Cocklebur plant response rating: 90
cocklebur; Postemergence, 125 g ai/ha, scale 0 to 100, 0 no effect, 100 complete control
  Plant response rating, Cocklebur: 70
cocklebur; [9]
  Plant response rating, Cocklebur: 70
cocklebur; Preemergence, 500 g ai/ha, scale 0 to 100, 0 no effect, 100 complete control
  Cocklebur plant response rating: 100
cocklebur; [10]
  Plant response rating, Cocklebur: 50
lambsquarters; 62 g ai/ha, preemergence
  Plant response rating (0 = no effect, 100 = complete control), Lambsquarters: 100
lambsquarters; [7]
  Plant response rating, Lambsquarters: 100
lambsquarters; [8]
  Plant response rating, Lambsquarters: 100
lambsquarters; Postemergence, scale 0 to 100
  Lambsquarters plant response rating: 100
lambsquarters; [9]
  Plant response rating, Lambsquarters: 100
lambsquarters; [4]
  Lambsquarters plant response rating: 100
lambsquarters; [10]
  Plant response rating, Lambsquarters: 90
Yellow nutsedge; 62 g ai/ha, preemergence
  Plant response rating (0 = no effect, 100 = complete control), Nutsedge, Yellow: 0
Yellow nutsedge; [7]
  Plant response rating, Nutsedge, Yellow: 0
Yellow nutsedge; [8]
  Plant response rating, Nutsedge, Yellow: 0
Yellow nutsedge; Postemergence, scale 0 to 100
  Nutsedge, Yellow plant response rating: 30
Yellow nutsedge; [9]
  Plant response rating, Nutsedge, Yellow: 30
Yellow nutsedge; [4]
  Nutsedge, Yellow plant response rating: 0
Yellow nutsedge; [10]
  Plant response rating, Nutsedge, Yellow: 20
Common ragweed; 62 g ai/ha, preemergence
  Plant response rating (0 = no effect, 100 = complete control), Ragweed: 80
Common ragweed; [7]
  Plant response rating, Ragweed: 80
Common ragweed; [8]
  Plant response rating, Ragweed: 100
Common ragweed; Postemergence, scale 0 to 100
  Ragweed plant response rating: 90
Common ragweed; [9]
  Plant response rating, Ragweed: 80
Common ragweed; [4]
  Ragweed plant response rating: 100
Common ragweed; [10]
  Plant response rating, Ragweed: 70
soybean; 62 g ai/ha, preemergence
  Plant response rating (0 = no effect, 100 = complete control), Soybean: 0
soybean; [7]
  Plant response rating, Soybean: 0
soybean; [8]
  Plant response rating, Soybean: 10
soybean; Postemergence, scale 0 to 100
  Soybean plant response rating: 100
soybean; [9]
  Plant response rating, Soybean: 100
soybean; [4]
  Soybean plant response rating: 20
soybean; [10]
  Plant response rating, Soybean: 100
[2]; 62 g ai/ha, preemergence
  Plant response rating (0 = no effect, 100 = complete control), Sunflower: 0
[2]; [7]
  Plant response rating, Sunflower: 0
[2]; [8]
  Plant response rating, Sunflower: 10
[2]
  Sunflower plant response rating: 40
Rice [3]; 62 g ai/ha, scale 0 to 100 (0 no effect, 100 complete control)
  Rice plant response rating: 0
Rice [3]; 125 g ai/ha, scale of 0 to 100, 0 is no effect, 100 is complete control
  Rice plant response rating: 20
Rice [3]; 250 g ai/ha, scale 0 to 100 (0 no effect, 100 complete control)
  Plant response rating, Rice: 20
Rice [3]; 500 g ai/ha, scale 0 to 100 (0 no effect, 100 complete control)
  Plant response rating, Rice: 50
